# Data from PMC6958387, “Biological Evaluation of Arylsemicarbazone Derivatives as Potential Anticancer Agents” (Pharmaceuticals, 2019).
# How the values were obtained:
# HL-60 cells [1] = test: Mitochondrial transmembrane potential (rhodamine 123), flow cytometry; type: cell-based, human; conditions: 72 h
# Protocol: In this sense, in order to evaluate if compounds 3c and 4a induce apoptosis by alterating the mitochondria transmembrane potential, this assay was performed by flow cytometry using the fluorochrome rhodamine 123, because this is able to accumulate in cells with unchanged mitochondrial transmembrane potential.
# (§1) HL-60 cells (3 × 10^5) were plated in 24-well plates and treated with the compounds 3c (13 and 26 μM) and 4a (11 and 22 μM) for 72 h at 37 °C with 5% CO2. In all trials, doxorubicin was used as a positive control. After the incubation period, an aliquot of 500 μL of treated and untreated cells suspension was transferred to an Eppendorf tube and centrifuged to remove the supernatant and continue the protocol of the test. In the cell viability and annexin V assays, kits were used, ViaCount kit and guava nexin kit (Guava Technologies), respectively. The protocols performed in these tests followed the manufacturer’s instructions. For to analyze mitochondrial depolarization, rhodamine 123 fluorescent dye was used. In the assay for cell cycle analysis and DNA fragmentation propidium iodide was used. The experiments were performed on Guava EasyCyte HT (Merck-Millipore) flow cytometer, acquiring 5000 events. The data were analyzed in Guava-Soft™ software version 2.7. Three independent experiments were performed in triplicate.
# HL-60 cells [2] = test: Cell cycle assay (propidium iodide), flow cytometry; type: cell-based, human; conditions: 72 h
# Protocol: In order to improve the study of the mechanism of death induction by compounds 3c and 4a in HL-60 cells, a test was performed on the flow cytometer after staining with propidium iodide to evaluate the effect of the compounds on cell cycle progression (Figure 6).
# as §1
# HL-60 cells [3] = test: Annexin V-FITC/7-AAD test, flow cytometry; type: cell-based, human; conditions: for cells in initial apoptosis [Annexin V(+) and 7-AAD(−)] / cells in late apoptosis [Annexin V(+) and 7-AAD(+)] / dead cells [Annexin V(−) and 7-AAD (+)]: 72 h
# Protocol: Aiming to better study the mechanism of induction of death involved in HL-60 cells after treatment with compounds 3c and 4a, a flow cytometric test was performed after double staining with annexin V-FITC/7-AAD. This assay is based on the ability of annexin V to bind with high affinity to phosphatidylserine which is translocated to the outer membrane of apoptotic cells and the 7-AAD dye binds to the DNA of cells with loss of membrane integrity. Thus, in this test it is possible to identify four distinct populations: viable cells [Annexin V(−) and 7-AAD(−)], initial apoptotic cells [Annexin V(+) and 7-AAD(−)], late apoptotic cells [Annexin V(+) and 7-AAD(+)] and dead cells [Annexin V(−) and 7-AAD (+)] [59].
# as §1
# HL-60 cells [4] = test: Cell viability, Guava ViaCount kit, flow cytometry; type: cell-based, human; conditions: 22 μM, 72 h
# Protocol: Initially, the percentage of viable cells in apoptosis or necrosis was determined by the ViaCount assay at the Guava EasyCyte HT flow cytometer (Merck-Millipore, Hayward, CA, USA). The ViaCount kit (Merck-Millipore, Hayward, CA, USA) determines cell viability based on membrane permeability. The concentrations used in the cytometric tests were values corresponding to the IC50 and 2x IC50 of 72 h and the chosen cell line was HL-60 (promyelocytic leukemia).
# as §1, with “The experiments were performed on Guava EasyCyte HT (Merck-Millipore) flow cytometer, acquiring 5000 events.” left out, “Three independent experiments were performed in triplicate.” left out
smiles,measurement,setting,value
"NC(=O)N/N=C/c1c(O)ccc2ccccc12 [Compound 3c, 2-Hydroxynaphthaldehyde Semicarbazone]",depolarized cells,HL-60 cells [1]; 13 μM,30.9%
same,depolarized cells,HL-60 cells [1]; 26 μM,34.2%
same,cells in G1 phase,HL-60 cells [2]; 13 μM,63.3%
same,cells in G1 phase,HL-60 cells [2]; 26 μM,66.2%
same,cells in initial apoptosis [Annexin V(+) and 7-AAD(−)],HL-60 cells [3]; 13 μM,16.7%
same,cells in late apoptosis [Annexin V(+) and 7-AAD(+)],HL-60 cells [3]; 13 μM,7.4%
same,cells in initial apoptosis [Annexin V(+) and 7-AAD(−)],HL-60 cells [3]; 26 μM,27.2%
same,cells in late apoptosis [Annexin V(+) and 7-AAD(+)],HL-60 cells [3]; 26 μM,18.1%
same,cells in apoptosis (annexin V assay),HL-60 cells [3]; highest concentration tested (26 μM),approximately 50%
"Cc1ccc(C=NNC(N)=O)cc1 [Compound 3g, 4-Methylbenzaldehyde Semicarbazone]",melting point,,215 to 217 °C
"CCCCN(N=Cc1ccc([N+](=O)[O-])o1)C(N)=O [Compound 4a, 5-Nitro-2-(N^2-n-butyl)furfuraldehyde Semicarbazone]",cells in early apoptosis (ViaCount),HL-60 cells [4],65.3%
same,depolarized cells,HL-60 cells [1]; 22 μM,59.3%
same,cells in G1 phase,HL-60 cells [2]; 11 μM,62.7%
same,cells in G1 phase,HL-60 cells [2]; 22 μM,81.9%
same,cells in initial apoptosis [Annexin V(+) and 7-AAD(−)],HL-60 cells [3]; 11 μM,5.4%
same,cells in late apoptosis [Annexin V(+) and 7-AAD(+)],HL-60 cells [3]; 11 μM,8.3%
same,dead cells [Annexin V(−) and 7-AAD (+)],HL-60 cells [3]; 11 μM,9.1%
same,cells in initial apoptosis [Annexin V(+) and 7-AAD(−)],HL-60 cells [3]; 22 μM,4.7%
same,cells in late apoptosis [Annexin V(+) and 7-AAD(+)],HL-60 cells [3]; 22 μM,12.5%
same,dead cells [Annexin V(−) and 7-AAD (+)],HL-60 cells [3]; 22 μM,~50%
